Measured values reported in patent publication US20250145715A1, “B7-H3 TARGETING FUSION PROTEINS AND METHODS OF USE THEREOF” (GT Biopharma, Inc., priority 2021, published 2025).

Tested on: C4-2 prostate cancer cells
Assay: NK cell CD107a / IFNγ flow cytometry against C4-2
Assay type: cell-based, human
Settings: normal donor and prostate cancer patient NK cells, vs controls
Source text: FIG. 15A is a graph showing pooled analysis of proportion of NK cells from healthy donors or prostate cancer patients expressing CD107a+ (top) or IFNγ (bottom) against C4-2 targets (N=9 for healthy donors, N=3 for patients). FIG. 15B is a graph showing pooled analysis of proportion of NK cells from healthy donors or prostate cancer patients expressing CD107a+ (top) or IFNγ (bottom) against DU145 targets (N=9 for healthy donors, N=3 for patients). FIG. 15C is a graph showing pooled analysis of proportion of NK cells from healthy donors or prostate cancer patients expressing CD107a+ (top) or IFNγ (bottom) against LNCaP targets (N=9 for healthy donors, N=3 for patients). FIG. 15D is a graph showing pooled analysis of proportion of NK cells from healthy donors or prostate cancer patients expressing CD107a+ (top) or IFNγ (bottom) against PC3 targets (N=9 for healthy donors, N=3 for patients). * p<0.05, ** p<0.01, *** p<0.001, and **** p<0.0001.
FIG. 23A is a graph illustrating percent CD107a+ NK cells in PBMCNK alone in the presence of 0.3 nM TriKE. […]
ADCC was measured in a flow cytometry assay by evaluating degranulation via CD107a (lysosomal-associated membrane protein LAMP-1) and intracellular IFNγ production. […] Samples were washed and evaluated in an LSRII flow cytometer (BD Biosciences, San Jose, CA, USA). […]

## cam1615B7-H3: second-generation TriKE: humanized camelid anti-CD16 VHH, human wild-type IL-15, anti-B7-H3 mAb 376.96 scFv; SEQ ID NO:1
  NK cell IFNγ production against C4-2: enhanced
  NK cell degranulation (CD107a) against C4-2: enhanced
